The structures appear in SMILES notation. Structures can show the parent of a compound that is named as a salt. Where two headings read alike, the source gives them in different places. Where a SMILES comes first, the peptide text is derived from it. [ ]: non-standard residue; d: D form. The star is where a group is joined. pGlu = O=C1CC[C@@H](C(=O)O)N1; Cbz = O=C(OCc1ccccc1)*

As a reminder, the IC50 is the point on the concentration scale where inhibition reaches its midpoint.

For assay [1], the target named is T1, plasmin (Homo sapiens, UniProt P00747).
T1 construct: fibrinogen substrate
T1 sequence (P00779 27-440): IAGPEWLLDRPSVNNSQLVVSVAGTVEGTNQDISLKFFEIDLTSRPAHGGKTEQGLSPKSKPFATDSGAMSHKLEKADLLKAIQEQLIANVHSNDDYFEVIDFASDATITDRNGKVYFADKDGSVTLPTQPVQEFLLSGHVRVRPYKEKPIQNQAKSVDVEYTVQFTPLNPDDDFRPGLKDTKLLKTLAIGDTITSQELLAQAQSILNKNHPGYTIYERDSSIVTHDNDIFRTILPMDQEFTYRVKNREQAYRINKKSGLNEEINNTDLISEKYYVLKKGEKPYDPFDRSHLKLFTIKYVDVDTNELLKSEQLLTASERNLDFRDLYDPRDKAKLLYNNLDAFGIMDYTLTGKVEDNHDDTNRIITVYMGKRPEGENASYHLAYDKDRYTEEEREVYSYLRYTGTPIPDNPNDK
T1 sequence (P00747 97-810): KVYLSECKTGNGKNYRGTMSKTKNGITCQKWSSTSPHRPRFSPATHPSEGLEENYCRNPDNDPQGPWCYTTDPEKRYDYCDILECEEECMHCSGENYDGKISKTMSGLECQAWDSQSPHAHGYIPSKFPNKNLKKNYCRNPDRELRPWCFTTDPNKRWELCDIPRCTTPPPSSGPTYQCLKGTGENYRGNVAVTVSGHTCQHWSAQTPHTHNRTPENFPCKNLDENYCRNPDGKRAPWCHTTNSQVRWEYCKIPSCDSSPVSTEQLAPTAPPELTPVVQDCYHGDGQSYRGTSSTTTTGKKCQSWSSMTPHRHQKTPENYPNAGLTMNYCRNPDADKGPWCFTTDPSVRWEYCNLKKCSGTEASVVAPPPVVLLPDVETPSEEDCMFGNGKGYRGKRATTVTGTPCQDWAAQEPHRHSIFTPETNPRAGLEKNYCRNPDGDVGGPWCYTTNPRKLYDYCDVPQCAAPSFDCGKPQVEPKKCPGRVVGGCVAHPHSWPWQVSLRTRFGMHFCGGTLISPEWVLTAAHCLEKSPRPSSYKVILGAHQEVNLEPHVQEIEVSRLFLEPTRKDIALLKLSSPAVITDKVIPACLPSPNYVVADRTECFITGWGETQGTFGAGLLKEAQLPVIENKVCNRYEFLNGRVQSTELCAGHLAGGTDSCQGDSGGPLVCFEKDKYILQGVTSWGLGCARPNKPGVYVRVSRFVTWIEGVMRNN
The assay can be described thus: Determination of Anti-Plasmin Activity. It is filed as biochemical. The following applies: fibrinogen substrate, plasminogen from human serum + streptokinase, pH 7.2, 37° C., 20 minutes. On the procedure:
The inhibitory activity of the compounds on each protease was determined as follows:
Buffer solution: pH 7.2, 0.01 M phosphate buffer solution.
Substrate: 2 g of fibrinogen (Armour Pharm. Co., U.S.A.) were dissolved in 100 ml of the phosphate buffer solution under heat.
Enzyme: The human serum was mixed with 20 times as much water, and after acetic acid had been added into the mixture to adjust it to pH 5.2, the solution was left at room temperature for half an hour. The precipitates obtained by centrifugation at 3,000 rpm for 10 minutes was dissolved in an equal quantity of the buffer solution to that of the serum, and the resulting solution was subjected to centrigugation at 10,000 rpm for half an hour, whereby a plasminogen solution was obtained as the supernatant. A solution of streptokinase (Varidase, Lederle Lab., U.S.A.) having a concentration of 10,000 U/ml was prepared, and kept in a cold and dark place. Prior to use, it was diluted with the buffer solution into a solution having a concentration of 2,000 U/ml. The enzyme solution was adjusted prior to use so that 0.5 ml thereof might show an absorbance of about 0.4 at 280 nm after 20 minutes of reaction.
Method: 0.5 ml of the plasminogen solution, 0.3 ml of the phosphate buffer solution, 0.1 ml of the streptokinase solution, and 0.1 ml of the test sample or water were placed in a test tube (15 mm×100 mm). After the mixed solution in the test tube had been heated at 37° C. for three minutes, 2.0 ml of the fibrinogen solution were added into the solution in the test tube, and reacted therewith at 37° C. for 20 minutes. When the reaction had been completed, 1.5 ml of a 1.7 M perchloric acid solution were added into the test tube, and its contents were shaken slightly. After the test tube had been stood at room temperature for an hour, its contents were subjected to centrigugation at 3,000 rpm for 10 minutes. The absorbance (a) of the supernatant thus obtained was measured at 280 nm. The absorbance (b) of the controll solution not containing any compound of this invention was also measured.
The inhibition coefficients of the compounds of this invention on each enzyme were calculated from the absorbances (a) and (b) obtained as hereinabove described, in accordance with the following formula: [formula] These inhibition rates were obtained for various concentrations of the compounds according to this invention, and the concentration of a 50% inhibition (IC50) were calculated therefrom.

Assay [2] has as its system fibrinolytic system. The following applies: cited from earlier work.
In assay [3] the test system is chickens with spontaneous muscular dystrophy. As to conditions: Libby et al., Science 1978; cited from earlier work.
Setting [4] is: read-out: IC50 Plasmin (converted).

Take `CC(C)C[C@H](NC(=O)C(O)c1ccccc1)C(=O)N[C@H](C=O)CCCNC(=N)N` (mixture of isomers) [Compound No. 35, DL-Mandelyl-L-leucyl-L-argininal hydrochloride]: the IC50 in assay [1] (setting [4]) was 3.17 µM. The same measure, in the same setting: to `CCCC(=O)N[C@@H](CC(C)C)C(=O)N[C@H](C=O)CCCNC(=N)N` [Compound No. 1, n-Butanoyl-L-leucyl-L-argininal hydrochloride] belongs 37.8 µM. For `CCC(CC)C(=O)N[C@@H](CC(C)C)C(=O)N[C@H](C=O)CCCNC(=N)N` [Compound No. 2, 2-Ethylbutanoly-L-leucyl-L-argininal hydrochloride], the concentration for half-maximal inhibition (IC50) in assay [1] (setting [4]) is 81.2 µM. `CCCCCC(=O)N[C@@H](CC(C)C)C(=O)N[C@H](C=O)CCCNC(=N)N` [Compound No. 3, n-Hexanoly-L-leucyl-L-argininal hydrochloride]: the IC50 in assay [1] (setting [4]) was 16.8 µM.

On to `CC(C)CC(=O)N[C@@H](CC(C)C)C(=O)N[C@H](C=O)CCCNC(=N)N` [Compound No. 4, 3-Methylbutanoyl-L-leucyl-L-argininal hydrochloride], for which the IC50 in assay [1] (setting [4]) was 21.4 µM. Still for that read-out and setting: in the case of `CCCCCCCCC(=O)N[C@@H](CC(C)C)C(=O)N[C@H](C=O)CCCNC(=N)N` [Compound No. 5, n-Nonanoyl-L-leucyl-L-argininal hydrochloride] it was 2.68 µM. Still for that read-out and setting: to `CC(C)C[C@H](NC(=O)C1CCCCC1)C(=O)N[C@H](C=O)CCCNC(=N)N` [Compound No. 6, Cyclohexanecarbonyl-L-leucyl-L-argininal hydrochloride] belongs 56 µM; to `CC(C)C[C@H](NC(=O)c1ccccc1)C(=O)N[C@H](C=O)CCCNC(=N)N` [Compound No. 8, Benzoyl-L-leucyl-L-argininal hydrochloride], 44.4 µM; to `CC(C)C[C@H](NC(=O)c1cccc(Cl)c1)C(=O)N[C@H](C=O)CCCNC(=N)N` [Compound No. 9, m-Chlorobenzoyl-L-leucyl-L-argininal hydrochloride], 13.4 µM.

With `Cc1ccc(C(=O)N[C@@H](CC(C)C)C(=O)N[C@H](C=O)CCCNC(=N)N)cc1` [Compound No. 10, p-Methylbenzoyl-L-leucyl-L-argininal hydrochloride], the IC50 in assay [1] (setting [4]) is 32.9 µM. As to `COc1ccc(C(=O)N[C@@H](CC(C)C)C(=O)N[C@H](C=O)CCCNC(=N)N)cc1` [Compound No. 11, p-Methoxybenzoyl-L-leucyl-L-argininal hydrochloride], the concentration for half-maximal inhibition (IC50) in assay [1] (setting [4]) is 39.1 µM.

Consider `CC(C)C[C@H](NC(=O)c1ccc([N+](=O)[O-])cc1)C(=O)N[C@H](C=O)CCCNC(=N)N` [Compound No. 12, p-Nitrobenzoyl-L-leucyl-L-argininal hydrochloride], for which, in assay [1] (setting [4]), the IC50 is 30.6 µM. On to `CC(C)C[C@H](NS(=O)(=O)c1ccccc1)C(=O)N[C@H](C=O)CCCNC(=N)N` [Compound No. 13, Benzenesulfonyl-L-leucyl-L-argininal hydrochloride], for which the 50% inhibitory concentration (IC50) in assay [1] (setting [4]) is 23.9 µM. For `Cc1ccc(S(=O)(=O)N[C@@H](CC(C)C)C(=O)N[C@H](C=O)CCCNC(=N)N)cc1` [Compound No. 14, p-Toluenesulfonyl-L-leucyl-L-argininal hydrochloride], the IC50 in assay [1] (setting [4]) is 14.5 µM.

As to `CC(C)C[C@H](NC(=O)Cc1ccccc1)C(=O)N[C@H](C=O)CCCNC(=N)N` [Compound No. 15, Phenylacetyl-L-leucyl-L-argininal hydrochloride], in assay [1] (setting [4]), the half-inhibitory concentration (IC50) was 14.6 µM. Still for that read-out and setting: in the case of `CC(C)C[C@H](NC(=O)Cc1ccccc1[N+](=O)[O-])C(=O)N[C@H](C=O)CCCNC(=N)N` [Compound No. 16, o-Nitrophenylacetyl-L-leucyl-L-argininal hydrochloride] it was 42.5 µM; in that of `CC(C)C[C@H](NC(=O)Cc1ccc([N+](=O)[O-])cc1)C(=O)N[C@H](C=O)CCCNC(=N)N` [Compound No. 17, p-Nitrophenylacetyl-L-leucyl-L-argininal hydrochloride], 3.61 µM. On the same count and under the same terms, to `CC(C)C[C@H](NC(=O)Cc1ccccc1O)C(=O)N[C@H](C=O)CCCNC(=N)N` [Compound No. 18, o-Hydroxyphenylacetyl-L-leucyl-L-argininal hydrochloride] belongs 12.9 µM; to `CC(C)C[C@H](NS(=O)(=O)c1cccc2ccccc12)C(=O)N[C@H](C=O)CCCNC(=N)N` [Compound No. 20, 1-Naphthalenesulfonyl-L-leucyl-L-argininal hydrochloride], 28.2 µM; to `CC(C)C[C@H](NS(=O)(=O)c1cccc2c(N(C)C)cccc12)C(=O)N[C@H](C=O)CCCNC(=N)N` [Compound No. 21, 5-Dimethylamino-1-naphthalenesulfonyl-L-leucyl-L-argininal 2 hydrochloride], 24.4 µM. For the molecule `CC(C)C[C@H](NC(=O)c1ccncc1)C(=O)N[C@H](C=O)CCCNC(=N)N` [Compound No. 22, Isonicotinyl-L-leucyl-L-argininal hydrochloride], the IC50 in assay [1] (read-out: IC50 Plasmin) is 88.7 µM. On to `CC(C)C[C@H](NC(=O)c1cccnc1)C(=O)N[C@H](C=O)CCCNC(=N)N` [Compound No. 23, Nicotinyl-L-leucyl-L-argininal hydrochloride], for which, in assay [1] (read-out: IC50 Plasmin), the IC50 is 23.9 µM.

As for `CC(C)C[C@H](NC(=O)OCc1ccccc1)C(=O)N[C@H](C=O)CCCNC(=N)N` [Compound No. 25, Benzyloxycarbonyl-L-leucyl-L-argininal hydrochloride], in assay [1] (setting [4]), the IC50 was 33.9 µM.

`CC(C)C[C@H](NC(=O)c1ccco1)C(=O)N[C@H](C=O)CCCNC(=N)N` [Compound No. 26, Furan-2-carbonyl-L-leucyl-L-argininal hydrochloride]: the IC50 in assay [1] (setting [4]) was 90.3 µM. Same read-out and setting: to `CC(C)C[C@H](NC(=O)[C@@H]1CCC(=O)N1C(=O)OCc1ccccc1)C(=O)N[C@H](C=O)CCCNC(=N)N` [Compound No. 30, N-Benzyloxycarbonyl-L-pyroglutamyl-L-leucyl-L-argininal hydrochloride] belongs 0.958 µM. Regarding `CC(C)C[C@H](NC(=O)[C@@H]1CCC(=O)N1)C(=O)N[C@H](C=O)CCCNC(=N)N` [Compound No. 31, L-Pyroglutamyl-L-leucyl-L-argininal hydrochloride] ([pGlu]-Leu-Arg-aldehyde), the IC50 in assay [1] (setting [4]) is 1.19 µM.

In the case of `CC(C)C[C@H](NC(=O)[C@H](Cc1ccccc1)NC(=O)OCc1ccccc1)C(=O)N[C@H](C=O)CCCN=C(N)N` [Compound No. 36, N-Benzyloxycarbonyl-L-phenylalanyl-L-leucyl-L-argininal hydrochloride] (Cbz-Phe-Leu-Arg-aldehyde), the half-maximal inhibitory concentration (IC50) in assay [1] (setting [4]) is 1.24 µM. Regarding `CC(C)C[C@H](NC(=O)[C@@H](O)[C@@H](Cc1ccccc1)NC(=O)OCc1ccccc1)C(=O)N[C@H](C=O)CCCNC(=N)N` [Compound No. 37, N-Benzyloxycarbonyl-(2S,3R)-3-amino-2-hydroxy-4-phenylbutanoyl-L-leucyl-L-argininal hydrochloride], the half-maximal inhibitory concentration (IC50) in assay [1] (read-out: IC50 Plasmin) is 2.4 µM. With `CC(=O)N[C@@H](CC(C)C)C(=O)N[C@@H](CC(C)C)C(=O)N[C@H](C=O)CCCNC(=N)N` [Leupeptin, acetyl or propionyl-L-leucyl-L-leucyl-L-argininal], the 50% inhibitory concentration (IC50) in assay [1] (setting [4]) was 11 µM. In assay [2], the “pharmacological action on the fibrinolytic system” value is given as “a pharmacological action on the fibrinolytic system”. Besides, the “inhibition of atrophy of the muscles” value in assay [3] is listed as “inhibits the atrophy of the muscles”.

Source of the values: US4401594A, “L-Argininal derivatives and a method of manufacturing the same” (Nippon Kayaku Kabushiki Kaisha, priority 1980, dated 1983).
